Data as given in article PMC3678025, “Structure of the Tubulin/FtsZ-Like Protein TubZ from Pseudomonas Bacteriophage ΦKZ” (Journal of Molecular Biology, 2013).

What was measured:
ΦKZ TubZ-His6 = target: T1, ΦKZ TubZ-His6 (Pseudomonas phage phiKZ, UniProt Q8SDC3); assay: X-ray crystal structure; format: binding; conditions: 2.0 Å monomer (GDP retained through purification, 150 mM Tris-Cl pH 8.0) and 1.7 Å protofilament (crystallised with GTPγS, pH 5.5); GTPase active site
T1 construct: gene PHIKZ039; used for crystallography

Wild-type ΦKZ TubZ = target: T2, Wild-type ΦKZ TubZ (Pseudomonas phage phiKZ, UniProt Q8SDC3); assay: […]° light scattering of polymerisation, electron cryo-microscopy; format: biochemical; conditions: 2 μM protein, 20 or 200 μM GTP, 200 mM KCl, 5 mM MgCl2, pH 8.0, 25 °C; induces polymerisation
T2 construct: gene PHIKZ039; used for light scattering and electron microscopy
T2 sequence (Q8SDC3 whole entry): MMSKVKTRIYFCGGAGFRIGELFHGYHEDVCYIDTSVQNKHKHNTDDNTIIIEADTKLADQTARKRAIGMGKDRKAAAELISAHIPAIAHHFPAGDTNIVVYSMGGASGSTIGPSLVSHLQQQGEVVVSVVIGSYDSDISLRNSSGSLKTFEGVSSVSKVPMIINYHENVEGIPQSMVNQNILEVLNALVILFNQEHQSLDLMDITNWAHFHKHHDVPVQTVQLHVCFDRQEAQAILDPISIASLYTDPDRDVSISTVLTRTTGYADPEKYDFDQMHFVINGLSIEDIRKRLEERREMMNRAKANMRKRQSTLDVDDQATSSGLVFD

T1 sequence (Q8SDC3 whole entry): as above

SMILES | X-ray crystal structure (ΦKZ TubZ-His6) | 90° light scattering of polymerisation, electron cryo-microscopy (Wild-type ΦKZ TubZ)
Nc1nc2c(ncn2[C@@H]2O[C@H](COP(=O)(O)OP(=O)(O)O)[C@@H](O)[C@H]2O)c(=O)[nH]1 [GDP] | The GTPase active site within the subunit was occupied by GDP, which was retained | –
Nc1nc2c(ncn2[C@@H]2O[C@H](COP(=O)(O)OP(=O)(O)OP(=O)(O)O)[C@@H](O)[C@H]2O)c(=O)[nH]1 [GTP] | – | ΦKZ TubZ filaments proved extremely dynamic in the presence of GTP
